Key:
[1] = test system: spinal MOR+ neurons; assay: Von Frey filament Up-Down test with chemogenetic inhibition; assay type: in vivo, mouse; settings: intrathecal DCZ 10 pg, mMORp-hM4Di-mCherry injected mice; von Frey and hot plate
Method: For spinal cord chemogenetic studies, mice were injected intraparenchymally at four sites (bilaterally at L4 and L5) with 400 nL of AAV1-mMORp-hM4Di-mCherry (titer: 3.1×10^12 gc/mL) to drive transduction of inhibitory DREADD receptor in spinal cord neurons. Using a modified, minimally invasive method for microinjection in the mouse spinal dorsal horn without laminectomy^91, mice were first anesthetized with isoflurane gas in oxygen (initial dose=4%, maintenance dose=2%), the back shaved and wiped with alcohol and povidone-iodine followed by a 2 cm incision made through the skin, and then placed within a modified Kopf stereotaxic frame to stabilize the T13 and L3 spinal column vertebrae. Next, the spinal column was slightly arched upwards by ˜30°, 0.2 mg/kg lidocaine was administered to the overlying muscle, which was then was gently dissected to expose the interspace above and below the T13 vertebrae, allowing direct access to the L3-5 spinal cord dorsal surface. […]
Von Frey filament touch test: To evaluate mechanical reflexive sensitivity, we used a logarithmically increasing set of 8 von Frey filaments (Stoelting), ranging in gram force from 0.07 to 6.0 grams. […] Using the Up-Down statistical method^100, the 50% withdrawal mechanical threshold scores were calculated for each mouse and then averaged across the experimental groups. […]

[2] = test system: MOR+ CeA neurons; assay: In vivo fiber photometry, hot water hind paw stimulation; set-up: species or system mouse; settings: mMORp-GCaMP6f mice, morphine i.p. 10 mg/kg 30 minutes prior to hot water hind paw stimulations
Method: For fiber photometry studies, mice were injected with ˜300 nL of recombinant AAV1-mMORp-GCaMP6f (titer: 3.69×10^12 gc/mL) in the right CeA, followed immediately by the placement of a fiberoptic implant (˜4.7 mm fiber, Doric Lenses) approximately 0.1-0.2 mm above the DV coordinate of the injection site (same as listed above). After setting the fiberoptic in position, MetaBond (Parkel1) and Jet Set dental acrylic (Lang Dental) were applied to the skull of a mouse to rapidly and firmly fix the fiberoptic in place. In brief, after exposure of the skull, the bone was scored with a scalpel blade to provide grooves for the MetaBond to settle into and provide better adhesion. After lowering the fiberoptic into the craniotomy hole, the skull was cleaned with saline and then fully air dried. […] All mice were monitored for up to two days following surgical procedures to ensure the animals' proper recovery.
Hot water hindpaw stimulation test: To evaluate responses to acute, noxious thermal stimulations during fiber photometry testing, we used a hot water hind paw application protocol described previously^102. […] Animals were continuously recorded by a web camera positioned to face the front of the cylinder in which the animal was housed, and all relevant behaviors time-locked to calcium mediated events were scored post-hoc using the video footage. […]

[3] = test system: MOR+ CeA neurons; assay: In vivo fiber photometry, chronic morphine drinking and naloxone precipitated withdrawal; set-up: species or system mouse; settings: mMORp-GCaMP6f mice, forced morphine drinking (0.3 mg/ml 3 days, 0.5 mg/ml 4 days), naloxone i.p. 3 mg/kg, 20-minute window
Method: For fiber photometry studies, mice were injected with ˜300 nL of recombinant AAV1-mMORp-GCaMP6f (titer: 3.69×10^12 gc/mL) in the right CeA, followed immediately by the placement of a fiberoptic implant (˜4.7 mm fiber, Doric Lenses) approximately 0.1-0.2 mm above the DV coordinate of the injection site (same as listed above). After setting the fiberoptic in position, MetaBond (Parkel1) and Jet Set dental acrylic (Lang Dental) were applied to the skull of a mouse to rapidly and firmly fix the fiberoptic in place. In brief, after exposure of the skull, the bone was scored with a scalpel blade to provide grooves for the MetaBond to settle into and provide better adhesion. […] All mice were monitored for up to two days following surgical procedures to ensure the animals' proper recovery.
In Vivo Fiber Photometry Recordings and Analysis: Optical recordings of GCaMP6f fluorescence were acquired using an RZ10× fiber photometry detection system (Tucker-Davis Technologies), consisting of a processor with Synapse software (Tucker-Davis Technologies), and optical components (Doric Lenses and ThorLabs). Excitation wavelengths generated by LEDs (460 nm blue light and 405 nm violet light) were relayed through a filtered fluorescence minicube at spectral bandwidths of 460-495 and 405 nm to a pre-bleached mono fiberoptic patch cord connected to the implant on top of each animal's head. […]

| Compound | analgesic effects on activation of mMORp-hM4Di in spinal cord neurons [1] | calcium mediated event peak z-score [2] | average post naloxone calcium events [3] |
| --- | --- | --- | --- |
| CN1CCN(C2=Nc3ccccc3Nc3ccccc32)CC1 [DCZ, deschloroclozapine] | analgesic effects similar to CNO treatment | – | – |
| CN1CC[C@]23c4c5ccc(O)c4O[C@H]2[C@@H](O)C=C[C@H]3[C@H]1C5.O=S(=O)(O)O [morphine, morphine sulfate] | – | 7.6 | 91 |

From patent publication US20260174790A1, “HUMAN AND MURINE OPRM1 PROMOTERS AND USES THEREOF” (The Trustees of the University of Pennsylvania, priority 2022, published 2026)
